Consider 47 molecules from the Deep4Chem optical property database.

A short description of this data set: solvent given as SMILES.

With `CCC(CC)COC1=CC2=C3c4cc(OCC(CC)CC)c(-c5cccs5)n4[B-](F)(F)[n+]4c3n(c3cc(C(C)(C)C)ccc34)[B-](F)(F)[N+]2=C1c1cccs1`, the fluorescence lifetime is 0.5 ns (in C1CCOC1) and 0.7 ns (in ClCCl).

`O=C(O)CCCCCNC(=O)c1cccc2c(=O)c3ccccc3[nH]c12` had a fluorescence lifetime (in O) of 4.2 ns.

As to `CCCCCn1c2ccc(S(=O)(=O)O)cc2c(=O)c2cc(S(=O)(=O)O)ccc21`, the fluorescence lifetime runs as follows: (in CS(C)=O) 10.2 ns; (in O) 15.6 ns.

On to `CC1=[N+]2C(=C(c3ccc(Br)cc3)c3ccc(C)n3[B-]2(F)F)C=C1c1cc2n(c1)[B-](F)(F)[N+]1=CC=CC1=C2c1c(C)cc(C)cc1C`, for which the fluorescence lifetime by setting is: (in C1CCCCC1) 3.01 ns; (in CCOC(C)=O) 0.938 ns.

Where the note is “in ClCCl”, `CC1=C(c2ccc(N(c3ccccc3)c3ccccc3)cc2)C(C)=[N+]2C1=C(c1c(-c3ccccn3)nc3ccccn13)c1c(C)cc(C)n1[B-]2(F)F` registered a fluorescence lifetime of 0.2 ns.

Consider `Cc1ccc2c(c1)C(c1ccccc1)(c1ccccc1)c1cc(C)ccc1N2c1ccc2c(c1)Oc1ccccc1B2c1c(C(C)C)cc(C(C)C)cc1C(C)C`, for which the fluorescence lifetime (in Cc1ccccc1) came out at 23 ns and the fluorescence lifetime (in O=P(c1ccccc1)(c1ccccc1)c1ccc2oc3ccc(P(=O)(c4ccccc4)c4ccccc4)cc3c2c1) came out at 28 ns.

As to `C(#Cc1cccc2cc(-c3ccccc3)c3cc(-c4cc[b-]5c(c4)c(-c4ccccc4)cc4cccc(C#Cc6ccccc6)[n+]54)cc[b-]3[n+]12)c1ccccc1`, the fluorescence lifetime (in C1CCCCC1) stood at 2.4 ns.

Turning to `CN(C)c1ccc2nc(/C=C/c3ccccc3)c(=O)oc2c1`, the fluorescence lifetime came to 2.82 ns (in C1CCCCC1); 3.52 ns (in C1COCCO1); 3.95 ns (in CC#N); 3.82 ns (in CC(C)=O); 2.8 ns (in CCCCCCC); 3.77 ns (in CCO). The fluorescence lifetime worked out at 3.58 ns (in CCOC(C)=O); 3.65 ns (in CN(C)C=O); 3.58 ns (in CS(C)=O); 3 ns (in Cc1ccccc1); 3.74 ns (in ClC(Cl)Cl); 3.83 ns (in ClCCl).

On to `COc1ccc(C#Cc2ccc(-c3nn[nH]n3)cc2)cc1OC`, for which the fluorescence lifetime (in C1CCOC1) was 0.94 ns; the fluorescence lifetime (in C1COCCO1) stood at 0.81 ns; the fluorescence lifetime (in CC#N) turned out to be 0.46 ns; the fluorescence lifetime (in CCOC(C)=O) is 0.86 ns; the fluorescence lifetime (in CS(C)=O) came out at 0.66 ns; the fluorescence lifetime (in Cc1ccccc1) is 0.73 ns.

`c1ccc(Nc2nc(Nc3ccccc3)nc(Nc3cc4ccc5cccc6ccc(c3)c4c56)n2)cc1` gave a fluorescence lifetime (in CCCCCCC) of 102 ns.

For the molecule `CCCCCCN1C(=O)c2cccc3c(-c4cccs4)ccc(c23)C1=O`, the fluorescence lifetime (in ClC(Cl)Cl) stood at 1.92 ns.

`CCn1c2ccccc2c2cc(-c3cc(-c4ccc5c(c4)c4ccccc4n5CC)nc(-c4ccccc4)n3)ccc21` gave a fluorescence lifetime (in C1CCOC1) of 1.77 ns.

`CCCCOc1ccc(-c2oc3cc4n(c3c2-c2ccc(OCCCC)cc2)[B-](F)(F)[N+]2=Cc3cc5oc(-c6ccc(OCCCC)cc6)c(-c6ccc(OCCCC)cc6)c5n3[B-](F)(F)[N+]2=C4)cc1` yielded a fluorescence lifetime (in ClCCl) of 1.97 ns.

For the setting “in ClCCl”, `c1ccc(N(c2ccccc2)c2ccc(-c3ccc4c(c3)C3(c5ccccc5Sc5ccccc53)c3cc(-c5ccc(N(c6ccccc6)c6ccccc6)cc5)ccc3-4)cc2)cc1` registered a fluorescence lifetime of 1.2 ns.

As for `CC(C)(C)c1ccc2cc3c4cccc5cccc(c6cc(C(C)(C)C)cc(c2c1)c63)c54`, under “in CC1CCCCC1”, the fluorescence lifetime was found to be 3.6 ns.

Molecule `CN(C)c1cccc2c1-c1ccccc1C2=O` registered a fluorescence lifetime (in C1CCCCC1) of 8 ns, a fluorescence lifetime (in CC#N) of 4.2 ns and a fluorescence lifetime (in c1ccccc1) of 10 ns.

For the setting “in ClCCl”, `Cc1ccc(C2=[N+]3C(=Cc4ccc(C)n4[B-]3(F)F)c3ccccc32)[nH]1` came in with a fluorescence lifetime of 8.11 ns.

For the molecule `CC(=O)c1ccc(-c2nc3ccc(N(C)C)c(Br)c3s2)cc1`, where the note is “in C1CCCCC1”, the fluorescence lifetime amounted to 0.1 ns.

With `CN(C)CCCN1c2ccccc2Sc2ccc(C(F)(F)F)cc21`, the fluorescence lifetime came to 2.66 ns (in CC#N), 2.47 ns (in CO) and 3.17 ns (in O).

`COc1ccc(C#Cc2ccc(C#Cc3ccc(C#Cc4ccccc4C#N)cc3C#N)cc2C#N)cc1`: the fluorescence lifetime stood at 1.29 ns (in C1CCOC1); 1.29 ns (in CC#N); 1.38 ns (in CN(C)C=O); 1.36 ns (in ClC(Cl)Cl); 1.45 ns (in c1ccccc1).

For `O=C(O)CCCCCn1c2ccccc2c(=O)c2cc(S(=O)(=O)O)ccc21`, the fluorescence lifetime (in O) was 13 ns.

For `COc1ccc(N(c2ccc(/C=C(\C)c3ccccc3)cc2)c2ccc(/C=C(\C)c3ccccc3)cc2)cc1`, the fluorescence lifetime (in Cc1ccccc1) was 1.5 ns.

Take `COc1ccc(C2=Nc3cccc4[n+]3[B-](F)(O2)OC(c2ccc(OC)cc2)=N4)cc1`: the fluorescence lifetime (in ClCCl) was found to be 1.8 ns.

`CCNc1cc2oc(=O)cc(C(F)(F)F)c2cc1C` came in with a fluorescence lifetime (in CC#N) of 7.7 ns.

On to `N#Cc1c(-n2c3ccc(Cl)cc3c3cc(Cl)ccc32)c(C#N)c(-n2c3ccc(Cl)cc3c3cc(Cl)ccc32)c(-n2c3ccc(Cl)cc3c3cc(Cl)ccc32)c1-n1c2ccc(Cl)cc2c2cc(Cl)ccc21`, for which the fluorescence lifetime (in Cc1ccccc1) is 0.4 ns.

Where the note is “in ClCCl”, `Cn1c(=O)cc(C(=O)c2ccccc2)c2sc(-c3ccc(C(F)(F)F)cc3)cc21` returned a fluorescence lifetime of 1.66 ns.

`F[B-]1(F)Oc2ccccc2-c2cc(-n3c4ccccc4c4ccccc43)cc[n+]21` returned a fluorescence lifetime (in O=P(c1ccccc1)(c1ccccc1)c1ccccc1Oc1ccccc1P(=O)(c1ccccc1)c1ccccc1) of 6.7 ns.

Take `c1ccc(C(=C(c2ccccc2)c2ccc(-c3ccc(-c4nc5c(-c6ccc(-c7ccc(C(=C(c8ccccc8)c8ccccc8)c8ccccc8)cc7)cc6)sc(-c6ccc(-c7ccc(C(=C(c8ccccc8)c8ccccc8)c8ccccc8)cc7)cc6)c5nc4-c4ccc(-c5ccc(C(=C(c6ccccc6)c6ccccc6)c6ccccc6)cc5)cc4)cc3)cc2)c2ccccc2)cc1`: the fluorescence lifetime (in ClCCl) was 6.7 ns.

For `COc1ccc2cc(-c3ccc(-c4cc5ccc(OC)cc5oc4=O)cc3)c(=O)oc2c1`, the fluorescence lifetime (in ClC(Cl)Cl) was 1.4 ns.

In turn, `c1ccc2cc3cnccc3cc2c1` registered a fluorescence lifetime (in CCO) of 20 ns.

For the setting “in C1CCOC1”, `CN(C)c1ccc(C(=Cc2ccc(C#N)cc2)c2ccc(N(C)C)cc2)cc1` returned a fluorescence lifetime of 7.1 ns.

Regarding `Cc1cn(CCCn2cc(C)c(=O)[nH]c2=O)c(=O)nc1-n1cncn1`, where the note is “in O”, the fluorescence lifetime was determined as 0.74 ns.

For the setting “in CS(C)=O”, `CCCCCCCCn1c2ccccc2c(=O)c2ccccc21` returned a fluorescence lifetime of 7.96 ns.

As for `CCCCCC(=O)c1c2c(c(C(=O)CCCCC)c3c1OC1(CCCC1)O3)OC1(CCCC1)O2`, the fluorescence lifetime (in CC#N) amounted to 20.3 ns; the fluorescence lifetime (in CCCCCC) worked out at 15.3 ns; the fluorescence lifetime (in CCO) is 11.6 ns; the fluorescence lifetime (in CO) turned out to be 5.9 ns; the fluorescence lifetime (in ClCCl) worked out at 24.4 ns.

Under “in CCO”, `CC1(C)CC(/C=C/c2ccc(N3CCOCCOCCOCCOCC3)cc2)=CC(=C(C#N)C#N)C1` had a fluorescence lifetime of 0.79 ns.

Where the note is “in C1CCCCC1”, `CN(C)c1ccc2nc(-c3ccc(C=C(C#N)C#N)cc3)sc2c1` came in with a fluorescence lifetime of 3.1 ns.

`CN(C)c1ccc(C2=Nc3sc4ccccc4[n+]3[B-](F)(F)O2)cc1` had a fluorescence lifetime (in Cc1ccccc1) of 1.74 ns.

As to `N#Cc1ccc(N(c2ccc(C#N)cc2)c2ccc3c4cccc5c(N(c6ccc(C#N)cc6)c6ccc(C#N)cc6)ccc(c6cccc2c63)c54)cc1`, where the note is “in ClCCl”, the fluorescence lifetime came to 3.54 ns.

`CCN(CC)c1ccc2c(c1)C(C)(C)C(=O)C=C2` gave a fluorescence lifetime (in O) of 2.56 ns.

The molecule `CC(=O)c1ccc(-c2nc3ccc(N(C)C)cc3s2)cc1` yielded a fluorescence lifetime (in C1CCCCC1) of 2.2 ns.

Turning to `COc1ccc(-c2cc3c(s2)c(C(C)=O)cc(=O)n3C)cc1`, the fluorescence lifetime (in ClCCl) stood at 1.51 ns.

With `N#CC(C#N)=C(/C=C/c1cc2c3c(c1)CCCN3CCC2)c1ccc2c3c(cccc13)CC2`, the fluorescence lifetime stood at 5.6 ns (in C1CCOC1); 2.62 ns (in CC#N); 2.8 ns (in CC(C)=O); 5.46 ns (in CCOC(C)=O); 2.67 ns (in CN(C)C=O); 1.63 ns (in CO). In addition, the fluorescence lifetime is, setting by setting: (in Cc1ccccc1) 4.48 ns; (in ClC(Cl)Cl) 6.68 ns.

`CN1CCc2cc(C3=Cc4cccc[n+]4[B-](F)(F)O3)ccc21` displayed a fluorescence lifetime (in ClC(Cl)Cl) of 3.11 ns.

On to `CN(C)c1ccc(/C=C2\CC/C(=C\c3ccc(C#N)cc3)C2=O)cc1`, for which the fluorescence lifetime is, setting by setting: (in C1CCOC1) 0.18 ns; (in CC#N) 0.17 ns; (in CC(C)=O) 0.23 ns; (in CC(C)O) 0.21 ns; (in CCCCO) 0.22 ns; (in CCCCOC(C)=O) 1.01 ns. In addition, the fluorescence lifetime by setting is: (in CCCO) 0.18 ns; (in CCO) 0.14 ns; (in CCOC(=O)c1ccccc1) 1.24 ns; (in CCOC(C)=O) 0.9 ns; (in CCOCC) 0.89 ns; (in CN(C)C=O) 0.18 ns. The fluorescence lifetime came to 0.13 ns (in CO); 0.19 ns (in CS(C)=O); 0.56 ns (in Cc1ccccc1); 0.17 ns (in ClC(Cl)(Cl)Cl); 2.08 ns (in ClC(Cl)Cl); 1.29 ns (in ClCCl). In addition, the fluorescence lifetime reads like this: (in Clc1ccccc1Cl) 2.18 ns; (in O=C1CCCC1) 0.31 ns; (in S=C=S) 0.28 ns; (in c1ccccc1) 0.76 ns; (in c1ccncc1) 0.41 ns.

`Cc1cc(-c2ccc(-n3c4ccccc4c4ccccc43)cc2)nc(-c2ccc(-c3ccccc3)cc2)n1`: the fluorescence lifetime runs as follows: (in C1CCOC1) 4.02 ns; (in CN(C)C=O) 6.66 ns; (in Cc1ccccc1) 2.27 ns; (in ClC(Cl)Cl) 3.93 ns.

Turning to `CN(C)c1ccc(C(=O)c2ccccc2)cc1`, the fluorescence lifetime stood at 0.1 ns (in C1CCCCC1); 0.16 ns (in CC#N); 0.0052 ns (in CO); 0.1 ns (in CS(C)=O); 0.9 ns (in c1ccccc1).

Where the note is “in ClCCl”, `ClP1(Cl)=N[P@@](Cl)(Oc2ccc3ccc4cccc5ccc2c3c45)=N[P@@](Cl)(Oc2ccc3ccc4cccc5ccc2c3c45)=N1` returned a fluorescence lifetime of 2.02 ns.
